Results: ChEMBL document CHEMBL1201862, “PubChem BioAssay data set” (2004)
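Assay format: 96-well plates, 48-hour exposure. Abbreviation: GI50, concentration required for 50% inhibition of growth.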 The source made the active and inactive calls. Rule as the data show it: active = GI50 up to about 1.1 µM and inactive = higher.

How the values were obtained:
Assay in all cases: NCI anticancer screen, dose series, 48 h
BT-549 = system: BT-549
NCI/ADR-RES = system: NCI/ADR-RES
HL-60 = system: HL-60
HOP-62 = system: HOP-62
Malme-3M = system: Malme-3M
SW-620 = system: SW-620
COLO 205 = system: COLO 205
NCI-H23 = system: NCI-H23
U-251 = system: U-251
HCC 2998 = system: HCC 2998
RPMI-8226 = system: RPMI-8226
PC-3 = system: PC-3
SK-MEL-28 = system: SK-MEL-28
OVCAR-5 = system: OVCAR-5
786-0 = system: 786-0
OVCAR-4 = system: OVCAR-4
NCI-H522 = system: NCI-H522
NCI-H226 = system: NCI-H226
A498 = system: A498
K562 = system: K562
NCI-H460 = system: NCI-H460
SNB-75 = system: SNB-75
DU-145 = system: DU-145
M14 = system: M14
MDA-N = system: MDA-N
OVCAR-8 = system: OVCAR-8
UACC-62 = system: UACC-62
SN12C = system: SN12C
A549 = system: A549
KM12 = system: KM12
SNB-19 = system: SNB-19
HCT-116 = system: HCT-116
TK-10 = system: TK-10
CAKI-1 = system: CAKI-1
EKVX = system: EKVX
SK-MEL-2 = system: SK-MEL-2
SF-295 = system: SF-295
Hs-578T = system: Hs-578T
CCRF-CEM = system: CCRF-CEM
SR = system: SR
HCT-15 = system: HCT-15
T47D = system: T47D
IGROV-1 = system: IGROV-1
SK-MEL-5 = system: SK-MEL-5
HT-29 = system: HT-29
SF-539 = system: SF-539
MDA-MB-435 = system: MDA-MB-435
MOLT-4 = system: MOLT-4
ACHN = system: ACHN
SK-OV-3 = system: SK-OV-3
OVCAR-3 = system: OVCAR-3
LOX IMVI = system: LOX IMVI
SF-268 = system: SF-268
HOP-92 = system: HOP-92
UACC-257 = system: UACC-257
MDA-MB-231 = system: MDA-MB-231
RXF 393 = system: RXF 393
MCF7 = system: MCF7
UO-31 = system: UO-31

In the case of CCN(CC)CCSc1nc2c(c(=N)n1-c1ccccc1)c(=S)n(-c1ccccc1)c(=S)n2-c1ccccc1, the GI50 (BT-549) is reported as 2.23 µM (inactive), the GI50 (NCI/ADR-RES) is reported as 5.36 µM (inactive) and the GI50 (HL-60) is reported as 0.0559 µM (active). The GI50 (HOP-62) was 2.85 µM (inactive), the GI50 (Malme-3M) was 1.55 µM (inactive) and the GI50 (SW-620) was 1.67 µM (inactive). The GI50 (COLO 205) was 1.66 µM (inactive), the GI50 (NCI-H23) was 3.69 µM (inactive) and the GI50 (U-251) was 2.37 µM (inactive). For the same molecule, the GI50 (HCC 2998) was 1.58 µM (inactive), the GI50 (RPMI-8226) was 0.275 µM (active) and the GI50 (PC-3) was 1.8 µM (inactive). For the same molecule, the GI50 (SK-MEL-28) was 3.62 µM (inactive), the GI50 (OVCAR-5) was 14.9 µM (inactive) and the GI50 (786-0) was 0.441 µM (active). For the same molecule, the GI50 (OVCAR-4) was 3.47 µM (inactive), the GI50 (NCI-H522) was 0.843 µM (active) and the GI50 (NCI-H226) was 25.7 µM (inactive). The GI50 (A498) was 8.85 µM (inactive), the GI50 (K562) was 0.601 µM (active) and the GI50 (NCI-H460) was 1.91 µM (inactive). The GI50 (SNB-75) was 2.19 µM (inactive), the GI50 (DU-145) was 1.67 µM (inactive) and the GI50 (M14) was 2.16 µM (inactive). The GI50 (MDA-N) was 2.36 µM (inactive), the GI50 (OVCAR-8) was 1.71 µM (inactive) and the GI50 (UACC-62) was 1.71 µM (inactive). For the same molecule, the GI50 (SN12C) was 1.73 µM (inactive), the GI50 (A549) was 2.08 µM (inactive) and the GI50 (KM12) was 5.69 µM (inactive). For the same molecule, the GI50 (SNB-19) was 18.3 µM (inactive), the GI50 (HCT-116) was 2.06 µM (inactive) and the GI50 (TK-10) was 1.73 µM (inactive). For the same molecule, the GI50 (CAKI-1) was 1.5 µM (inactive), the GI50 (EKVX) was 2.54 µM (inactive) and the GI50 (SK-MEL-2) was 7.55 µM (inactive). The GI50 (SF-295) was 12.8 µM (inactive), the GI50 (Hs-578T) was 2.58 µM (inactive) and the GI50 (CCRF-CEM) was 0.0843 µM (active). For the same molecule, the GI50 (SR) was 0.257 µM (active), the GI50 (HCT-15) was 1.77 µM and the GI50 (T47D) was 2.61 µM (inactive). For the same molecule, the GI50 (IGROV-1) was 1.64 µM (inactive), the GI50 (SK-MEL-5) was 3.24 µM (inactive) and the GI50 (HT-29) was 1.77 µM (inactive). The GI50 (SF-539) was 4.45 µM (inactive), the GI50 (MDA-MB-435) was 1.85 µM (inactive) and the GI50 (MOLT-4) was 0.194 µM (active). For the same molecule, the GI50 (ACHN) was 1.74 µM (inactive), the GI50 (SK-OV-3) was 6.65 µM (inactive) and the GI50 (OVCAR-3) was 1.64 µM (inactive). The GI50 (LOX IMVI) was 1.46 µM (inactive), the GI50 (SF-268) was 1.67 µM (inactive) and the GI50 (HOP-92) was 1.41 µM (inactive). The GI50 (UACC-257) was 1.72 µM (inactive), the GI50 (MDA-MB-231) was 1.83 µM (inactive) and the GI50 (RXF 393) was 1.36 µM (inactive).

With O=C(Nc1ccccc1)N1N=C(c2ccccc2)C1c1ccccc1 (centres undefined) the GI50 (BT-549) was 23.2 µM (inactive), the GI50 (NCI/ADR-RES) was 26.4 µM (inactive) and the GI50 (HL-60) was 21.9 µM (inactive). The GI50 (MCF7) was 20.2 µM (inactive), the GI50 (Malme-3M) was 30.5 µM (inactive) and the GI50 (SW-620) was 35.8 µM (inactive). The GI50 (UO-31) was 15.2 µM (inactive), the GI50 (COLO 205) was 41.7 µM (inactive) and the GI50 (NCI-H23) was 23.3 µM (inactive). The GI50 (U-251) was 36.2 µM (inactive), the GI50 (HCC 2998) was 31.3 µM (inactive) and the GI50 (RPMI-8226) was 14 µM (inactive). The GI50 (PC-3) was 18.8 µM (inactive), the GI50 (SK-MEL-28) was 53.7 µM (inactive) and the GI50 (OVCAR-5) was 23.2 µM (inactive). For the same molecule, the GI50 (786-0) was 16.4 µM (inactive), the GI50 (OVCAR-4) was 41.1 µM (inactive) and the GI50 (NCI-H522) was 19.9 µM (inactive). The GI50 (NCI-H226) was 18.8 µM (inactive), the GI50 (A498) was 18.5 µM (inactive) and the GI50 (NCI-H460) was 42.3 µM (inactive). For the same molecule, the GI50 (SNB-75) was 15.8 µM (inactive), the GI50 (DU-145) was > 100 µM (inactive) and the GI50 (M14) was 20 µM (inactive). The GI50 (MDA-N) was 27.4 µM (inactive), the GI50 (OVCAR-8) was 33.8 µM (inactive) and the GI50 (UACC-62) was 20.2 µM (inactive). For the same molecule, the GI50 (SN12C) was 48 µM (inactive), the GI50 (A549) was 25.3 µM (inactive) and the GI50 (KM12) was 29.9 µM (inactive). For the same molecule, the GI50 (SNB-19) was 27.7 µM (inactive), the GI50 (HCT-116) was 17.9 µM (inactive) and the GI50 (TK-10) was 36.1 µM (inactive). For the same molecule, the GI50 (CAKI-1) was 30.2 µM (inactive), the GI50 (EKVX) was 40.4 µM (inactive) and the GI50 (SF-295) was 24.3 µM (inactive). For the same molecule, the GI50 (Hs-578T) was 24.2 µM (inactive), the GI50 (HCT-15) was 33.8 µM and the GI50 (T47D) was 59.6 µM (inactive). The GI50 (IGROV-1) was 40.4 µM (inactive), the GI50 (SK-MEL-5) was 22.1 µM (inactive) and the GI50 (HT-29) was 20.5 µM (inactive). For the same molecule, the GI50 (SF-539) was 14.9 µM (inactive), the GI50 (ACHN) was 22 µM (inactive) and the GI50 (SK-OV-3) was 90.8 µM (inactive). For the same molecule, the GI50 (OVCAR-3) was 20.7 µM (inactive), the GI50 (LOX IMVI) was 29.9 µM (inactive) and the GI50 (SF-268) was 21.1 µM (inactive). For the same molecule, the GI50 (HOP-92) was 23.4 µM (inactive), the GI50 (UACC-257) was 31.8 µM (inactive) and the GI50 (MDA-MB-231) was 62.1 µM (inactive). The GI50 (RXF 393) was 17.3 µM (inactive).
